Converted amounts (≈) assume the structure as drawn.
Assays:
[1] = Solubility of dronabinol at 25° C.; format: physicochemical; details: for solubility: organic solvent or mixture
Description: Solubility at 25° C.: Dronabinol is immiscible in water.

[2] = Hygroscopicity of dronabinol by thermogravimetric analysis; format: physicochemical
[3] = Solubility of cannabidiol in solvents, oils and buffers at 25° C.; format: physicochemical
OEL of cannabidiol = details: estimated
[4] = Accelerated and long-term stability studies of cannabidiol (ICH Q1A (R2)); format: physicochemical; details: batches stored per ICH Q1A (R2)
Description: Manufacturing of all lots of cannabidiol was conducted in a manner consistent with Good Manufacturing Practices and ICH Q7 regulations. Consistent with these principles, and in direct regard to production of cannabidiol, the manufacturer conducted accelerated stability studies utilizing batches of cannabidiol manufactured at full scale. […]. In addition, the manufacturer has batches of cannabidiol on a long-term stability study. […] For these batches, the data and results from these stability studies are in compliance with documentation procedures.

**Q.** What does the source list for `CCCCCc1cc(O)c2c(c1)OC(C)(C)[C@@H]1CCC(C)=C[C@@H]21` [Dronabinol, 2-(6aR,10aR) 6a,7,8,10a-tetrahydro-6,6,9-trimethyl-3-pentyl-6H-dibenzo[b,d]pyran-l-ol]?
**A.** Solubility ([1]; Water): immiscible; solubility ([1]; Acetone): 100 mg/mL (≈ 318 mM); solubility ([1]; Ethanol): 100 mg/mL (≈ 318 mM); Hygroscopicity [2]: non-hygroscopic; weight change ([2]; approximately 140° C.): less than 0.1%

**Q.** For `C=C(C)[C@@H]1CCC(C)=C[C@H]1c1c(O)cc(CCCCC)cc1O` [Cannabidiol, 2-[(1R,6R)-3-methyl-6-prop-1-en-2-ylcyclohex-2-en-1-yl]-5-pentylbenzene-1,3-diol], which solubility ([3]; Britton Robinson Buffer, aqueous buffer, BRB pH 6, 25° C.) is on record?
**A.** The solubility was 0.00013 mg/mL (≈ 0.000413 mM).

**Q.** And the solubility ([3]; Britton Robinson Buffer, aqueous buffer, BRB pH 8, 25° C.)?
**A.** The solubility was 0.00012 mg/mL (≈ 0.000382 mM).

**Q.** What about the solubility ([3]; Britton Robinson Buffer, pH 4, aqueous buffer, BRB pH4, 25° C.) of the same compound?
**A.** Its solubility is 0.00011 mg/mL (≈ 0.00035 mM).

**Q.** And the solubility ([3]; Britton Robinson buffer, aqueous buffer, BRB pH 10, 25° C.)?
**A.** Its solubility is 0.00013 mg/mL (≈ 0.000413 mM).

**Q.** What about the solubility ([3]; Britton Robinson buffer, aqueous buffer, BRB pH 11, 25° C.) of the same compound?
**A.** The solubility was 0.00041 mg/mL (≈ 0.0013 mM).

**Q.** What about the Solubility ([3]; Heptane, 25° C.) of the same compound?
**A.** The Solubility was 64.6 mg/mL (≈ 205 mM).

**Q.** What about the Solubility ([3]; Isooctane, 25° C.) of the same compound?
**A.** The Solubility was 43.9 mg/mL (≈ 140 mM).

**Q.** And the Solubility ([3]; Water, 25° C.)?
**A.** The Solubility was less than 0.1 mg/mL.

**Q.** What about the solubility ([3]; Water, 25° C.) of the same compound?
**A.** Its solubility is less than 0.1 mg/mL.

**Q.** And the solubility ([3]; aqueous buffer, BRB (Britton Robinson Buffer) pH 2, 25° C.)?
**A.** The solubility was 0.00011 mg/mL (≈ 0.00035 mM).

**Q.** And the solubility ([3]; aqueous buffer, Britton Robinson Buffers)?
**A.** Its solubility is less than 0.1 mg/mL.

**Q.** And the solubility ([3]; aqueous buffer, Phosphate Buffer pH 6.5 without SLS, 25° C.)?
**A.** The solubility was 0.00015 mg/mL (≈ 0.000477 mM).

**Q.** What about the solubility ([3]; aqueous with cosolvent or surfactant or cyclodextrin, Cremophor EL, 25° C.) of the same compound?
**A.** Its solubility is greater than 100 mg/mL.

**Q.** And the solubility ([3]; aqueous with cosolvent or surfactant or cyclodextrin, Tween 80, 25° C.)?
**A.** The solubility was greater than 100 mg/mL.

**Q.** What about the Solubility ([3]; n-Decane, 25° C.) of the same compound?
**A.** The Solubility was 36.8 mg/mL (≈ 117 mM).

**Q.** And the solubility ([3]; oil or lipid, Dodecane Oil, 25° C.)?
**A.** Its solubility is 28 mg/mL (≈ 89 mM).

**Q.** What about the solubility ([3]; oil or lipid, Mineral Oil, 25° C.) of the same compound?
**A.** Its solubility is 16 mg/mL (≈ 50.9 mM).

**Q.** What about the solubility ([3]; oil or lipid, Sesame Oil, 25° C.) of the same compound?
**A.** Its solubility is 216 mg/mL (≈ 687 mM).

**Q.** And the solubility ([3]; oil or lipid, Sunflower Seed Oil, 25° C.)?
**A.** Its solubility is greater than 100 mg/mL.

**Q.** And the solubility ([3]; organic solvent or mixture, 1,2-Dimethyloxyethane, 25° C.)?
**A.** Its solubility is greater than 100 mg/mL.

**Q.** What about the solubility ([3]; organic solvent or mixture, 1,4-dioxane, 25° C.) of the same compound?
**A.** Its solubility is greater than 100 mg/mL.

**Q.** And the solubility ([3]; organic solvent or mixture, 1-Propanol, 25° C.)?
**A.** Its solubility is greater than 100 mg/mL.

**Q.** And the solubility ([3]; organic solvent or mixture, 2-Propanol (IPA), 25° C.)?
**A.** The solubility was greater than 100 mg/mL.

**Q.** What about the solubility ([3]; organic solvent or mixture, 2-butanone, 25° C.) of the same compound?
**A.** The solubility was greater than 100 mg/mL.

**Q.** What about the solubility ([3]; organic solvent or mixture, 2-methyl tetrahydrofuran (2-MeTHF), 25° C.) of the same compound?
**A.** The solubility was greater than 100 mg/mL.

**Q.** And the solubility ([3]; organic solvent or mixture, 2-methyl tetrahydrofuran saturated with water, 25° C.)?
**A.** Its solubility is greater than 100 mg/mL.

**Q.** What about the solubility ([3]; organic solvent or mixture, Acetone, 25° C.) of the same compound?
**A.** Its solubility is greater than 100 mg/mL.

**Q.** And the solubility ([3]; organic solvent or mixture, Acetonitrile (ACN), 25° C.)?
**A.** Its solubility is greater than 100 mg/mL.

**Q.** What about the solubility ([3]; organic solvent or mixture, Anisole, 25° C.) of the same compound?
**A.** The solubility was greater than 100 mg/mL.

**Q.** And the solubility ([3]; organic solvent or mixture, Chloroform, 25° C.)?
**A.** Its solubility is greater than 100 mg/mL.

**Q.** And the solubility ([3]; organic solvent or mixture, Cumene, 25° C.)?
**A.** Its solubility is greater than 100 mg/mL.

**Q.** And the solubility ([3]; organic solvent or mixture, Cyclohexane, 25° C.)?
**A.** The solubility was greater than 100 mg/mL.

**Q.** And the solubility ([3]; organic solvent or mixture, DMSO, 25° C.)?
**A.** The solubility was greater than 100 mg/mL.

**Q.** What about the solubility ([3]; organic solvent or mixture, Dichloromethane, 25° C.) of the same compound?
**A.** Its solubility is greater than 100 mg/mL.

**Q.** And the solubility ([3]; organic solvent or mixture, Diethyl Ether, 25° C.)?
**A.** Its solubility is greater than 100 mg/mL.

**Q.** And the solubility ([3]; organic solvent or mixture, Ethanol (EtOH), 25° C.)?
**A.** The solubility was greater than 100 mg/mL.

**Q.** What about the solubility ([3]; organic solvent or mixture, Ethyl Acetate (EtOAc), 25° C.) of the same compound?
**A.** Its solubility is greater than 100 mg/mL.

**Q.** And the solubility ([3]; organic solvent or mixture, Ethyl Formate, 25° C.)?
**A.** The solubility was greater than 100 mg/mL.

**Q.** And the solubility ([3]; organic solvent or mixture, Isobutanol, 25° C.)?
**A.** The solubility was greater than 100 mg/mL.

**Q.** And the solubility ([3]; organic solvent or mixture, Isopropyl Acetate (IPAc), 25° C.)?
**A.** The solubility was greater than 100 mg/mL.

**Q.** What about the solubility ([3]; organic solvent or mixture, Methanol (MeOH), 25° C.) of the same compound?
**A.** The solubility was greater than 100 mg/mL.

**Q.** And the solubility ([3]; organic solvent or mixture, N-methyl-pyrrolidone, 25° C.)?
**A.** Its solubility is greater than 100 mg/mL.

**Q.** What about the solubility ([3]; organic solvent or mixture, Tetrahydrofuran, 25° C.) of the same compound?
**A.** The solubility was greater than 100 mg/mL.

**Q.** And the solubility ([3]; organic solvent or mixture, Toluene, 25° C.)?
**A.** The solubility was greater than 100 mg/mL.

**Q.** And the solubility ([3]; organic solvent or mixture, all other solvents examined with the exception of heptane, n-decane and isooctane)?
**A.** Its solubility is greater than 100 mg/mL.

**Q.** And the solubility ([3]; organic solvent or mixture, methylcyclohexane, 25° C.)?
**A.** Its solubility is greater than 100 mg/mL.

**Q.** What about the solubility ([3]; organic solvent or mixture, n-hexane, 25° C.) of the same compound?
**A.** Its solubility is greater than 100 mg/mL.

**Q.** What about the solubility ([3]; organic solvent or mixture, p-Xylene, 25° C.) of the same compound?
**A.** The solubility was greater than 100 mg/mL.

**Q.** What about the solubility ([3]; organic solvent or mixture, tert-Butyl methyl ether (MTBE), 25° C.) of the same compound?
**A.** Its solubility is greater than 100 mg/mL.

**Q.** And the solubility ([3]; phosphate buffer with 0.4% SLS, aqueous with cosolvent or surfactant or cyclodextrin, Phosphate Buffer pH 6.5 with 0.4% SLS, 25° C.)?
**A.** The solubility was 0.00012 mg/mL (≈ 0.000382 mM).

**Q.** And the OEL (OEL of cannabidiol)?
**A.** Its OEL is 5-20 μg/m^3.

**Q.** And the “Stability (impurity levels, assay)” value [4]?
**A.** Its value is “no trends towards increased impurity levels or decrease in assay”.
